{"source": "paper PMC7162534", "about": "(ACS nano, 2020)", "key": {"[1]": {"target": "maltose-binding protein (MBP) (Escherichia coli, UniProt P0AEX9)", "design": "species or system E. coli", "details": "for frequency of state 1 / frequency of state 2 / frequency of state 3: 1 μM maltose; for current signal of trapped MBP on addition of the sugar: added to the cis chamber"}, "[2]": {"details": "cited from earlier work"}, "MBP": {"target": "MBP (Escherichia coli, UniProt P0AEX9)", "details": "read-out: Kd, previously determined value; cited from earlier work"}, "[3]": {"details": "10 μM sodium phosphate, before depletion of α-maltose"}, "[4]": {"details": "after depletion of α-maltose by 0.25 unit maltose phosphorylase"}, "[5]": {"details": "in the presence of ligand, −80 mV"}, "[6]": {"details": "assumption that state 3 represents MBP bound to an aldehyde intermediate"}, "[7]": {"details": "state 1, β anomer, −80 mV, pH 7.5"}, "[8]": {"details": "state 2, α anomer, −80 mV, pH 7.5"}, "[9]": {"details": "state 3, β anomer (second binding mode), −80 mV, pH 7.5"}}, "note": "Where two headings read alike, the source gives them in different places."}
{"molecule": "OC[C@H]1O[C@H](O[C@H]2[C@H](O)[C@@H](O)[C@H](O)O[C@@H]2CO)[C@H](O)[C@@H](O)[C@@H]1O", "note": "[Maltose, maltose]", "values": [{"measurement": "frequency of state 1", "setting": "[1]; [3]", "value": "4.28 ± 0.57", "unit": "s⁻¹"}, {"measurement": "frequency of state 2", "setting": "[1]; [3]", "value": "0.18 ± 0.17", "unit": "s⁻¹"}, {"measurement": "frequency of state 1", "setting": "[1]; [4]", "value": "5.59 ± 0.89", "unit": "s⁻¹"}, {"measurement": "frequency of state 2", "setting": "[1]; [4]", "value": 0, "unit": "s⁻¹"}, {"measurement": "frequency of state 3", "setting": "[1]; after the depletion of α-maltose", "value": "0.01 ± 0.02", "unit": "s⁻¹"}, {"measurement": "frequency of state 3", "setting": "[1]; before the depletion of α-maltose", "value": "0.05 ± 0.04", "unit": "s⁻¹"}, {"measurement": "residual current, state 0", "setting": "[1]; [5]", "value": "56.5 ± 0.4", "unit": "%"}, {"measurement": "residual current, state 1", "setting": "[1]; [5]", "value": "54.0 ± 0.4", "unit": "%"}, {"measurement": "residual current, state 2", "setting": "[1]; [5]", "value": "52.0 ± 0.4", "unit": "%"}, {"measurement": "residual current, state 3", "setting": "[1]; [5]", "value": "51.1 ± 0.4", "unit": "%"}]}
{"molecule": "O=C[C@H](O)[C@@H](O)[C@H](O[C@H]1O[C@H](CO)[C@@H](O)[C@H](O)[C@H]1O)[C@H](O)CO", "note": "[aldehyde intermediate]", "values": [{"measurement": "Kd", "setting": "[1]; [6]", "value": 0.019, "unit": "nM"}, {"measurement": "koff", "setting": "[1]; [6]", "value": "1.3 ± 0.5", "unit": "s⁻¹"}, {"measurement": "kon", "setting": "[1]; [6]", "value": "6.9 ± 2.8 × 10^10 M^−1s^−1"}]}
{"molecule": "OC[C@H]1O[C@H](O[C@H]2[C@H](O)[C@@H](O)[C@@H](O[C@H]3[C@H](O)[C@@H](O)[C@@H](O[C@H]4[C@H](O)[C@@H](O)C(O)O[C@@H]4CO)O[C@@H]3CO)O[C@@H]2CO)[C@H](O)[C@@H](O)[C@@H]1O", "note": "(some centres unmarked) [maltotetraose]", "values": [{"measurement": "current signal of trapped MBP on addition of the sugar", "setting": "[1]; −80 mV", "value": "three ligand-bound current levels similar to those of maltose and maltotriose"}]}
{"molecule": "OC[C@H]1O[C@@](CO)(O[C@H]2O[C@H](CO)[C@@H](O)[C@H](O)[C@H]2O)[C@@H](O)[C@@H]1O", "note": "[sucrose]", "values": [{"measurement": "current signal of trapped MBP on addition of the sugar", "setting": "[1]; −80 mV", "value": "no signal change"}]}
{"molecule": "OC[C@H]1O[C@H](O[C@H]2[C@H](O)[C@@H](O)[C@@H](O)O[C@@H]2CO)[C@H](O)[C@@H](O)[C@@H]1O", "note": "[α-maltose]", "values": [{"measurement": "rate constant of spontaneous interconversion between α-maltose and β-maltose", "setting": "[2]", "value": "~ 0.009 min^−1"}]}
{"molecule": "OC[C@H]1O[C@@H]2O[C@H]3[C@H](O)[C@@H](O)[C@@H](O[C@H]4[C@H](O)[C@@H](O)[C@@H](O[C@H]5[C@H](O)[C@@H](O)[C@@H](O[C@H]6[C@H](O)[C@@H](O)[C@@H](O[C@H]7[C@H](O)[C@@H](O)[C@@H](O[C@H]8[C@H](O)[C@@H](O)[C@@H](O[C@H]1[C@H](O)[C@H]2O)O[C@@H]8CO)O[C@@H]7CO)O[C@@H]6CO)O[C@@H]5CO)O[C@@H]4CO)O[C@@H]3CO", "note": "[β-cyclodextrin]", "values": [{"measurement": "current signal of trapped MBP on addition of the sugar", "setting": "[1]; −80 mV", "value": "one major current level similar to state 1 of maltose"}]}
{"molecule": "maltotriose", "values": [{"measurement": "Kd", "setting": "MBP", "value": "160 to 700", "unit": "nM"}, {"measurement": "current signal of trapped MBP on addition of the sugar", "setting": "[1]; −80 mV", "value": "four states that were almost identical to the states seen with maltose"}, {"measurement": "Kd", "setting": "[1]; state 1, β anomer, −80 mV, 150 mM NaCl, 15 mM Tris-HCl, pH 7.5", "value": 120, "unit": "nM"}, {"measurement": "koff", "setting": "[1]; [7]", "value": "4.8 ± 0.3", "unit": "s⁻¹"}, {"measurement": "kon", "setting": "[1]; [7]", "value": "40.8 ± 0.1", "unit": "µM⁻¹ s⁻¹"}, {"measurement": "association rate of major β-anomer binding state relative to α-anomer", "setting": "[1]; state 1 versus state 2", "value": "more than 3 times"}, {"measurement": "Kd", "setting": "[1]; [8]", "value": "240 ± 10", "unit": "nM"}, {"measurement": "koff", "setting": "[1]; [8]", "value": "1.6 ± 0.1", "unit": "s⁻¹"}, {"measurement": "kon", "setting": "[1]; [8]", "value": "6.6 ± 0.1", "unit": "µM⁻¹ s⁻¹"}, {"measurement": "Kd", "setting": "[1]; [9]", "value": "380 ± 20", "unit": "nM"}, {"measurement": "koff", "setting": "[1]; [9]", "value": "1.9 ± 0.4", "unit": "s⁻¹"}, {"measurement": "kon", "setting": "[1]; [9]", "value": "5.0 ± 0.2", "unit": "µM⁻¹ s⁻¹"}]}
